# Assay results published in PubChem BioAssay AID180 (DTP/NCI, 2004).
# Where “and” joins values, the source holds several entries; their conditions need not be identical. Identical values can stand only once.
# System: BDF1 mice, Adenocarcinoma 755 s.c., tumor weight T/C
# Test: NCI In Vivo Anticancer Drug Screen. Data for tumor model Adenocarcinoma 755 (subcutaneous) in B6D2F1 (BDF1) mice
# Conditions: endpoint: mean tumor weight, higher = larger tumour
# In short: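 Transplantable tumor implanted; mice dosed with compound or vehicle; survival or tumor size recorded; ratio of treated to vehicle control reported.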
# [1] = dose: 60.0 mg/kg/injection, schedule: Q01DX011 (ip), vehicle: carboxymethylcellulose (CMC)
# [2] = dose: 120.0 mg/kg/injection, schedule: Q01DX011 (ip), vehicle: carboxymethylcellulose (CMC)
# [3] = dose: 240.0 mg/kg/injection, schedule: Q01DX011 (ip), vehicle: carboxymethylcellulose (CMC)
# [4] = dose: 65.0 mg/kg/injection, schedule: Q01DX011 (ip), vehicle: methylcellulose (MC)
# [5] = dose: 25.0 mg/kg/injection, schedule: Q01DX011 (ip), vehicle: carboxymethylcellulose (CMC)
# [6] = dose: 75.0 mg/kg/injection, schedule: Q01DX011 (ip), vehicle: carboxymethylcellulose (CMC)
# [7] = dose: 30.0 mg/kg/injection, schedule: Q01DX011 (ip), vehicle: carboxymethylcellulose (CMC)
# [8] = dose: 150.0 mg/kg/injection, schedule: Q01DX011 (ip), vehicle: methylcellulose (MC)
compound,measurement,setting,value
Cc1ccc(S(=O)(=O)OCCC(=O)N2CCN(C(=O)CCOS(=O)(=O)c3ccc(C)cc3)CC2)cc1,T/C,"dose: 22.0 mg/kg/injection, schedule: Q01DX011 (ip), vehicle: methylcellulose (MC)",57 % of control
same,T/C,"dose: 43.0 mg/kg/injection, schedule: Q01DX011 (ip), vehicle: methylcellulose (MC)",47 % of control
same,T/C,"dose: 87.0 mg/kg/injection, schedule: Q01DX011 (ip), vehicle: methylcellulose (MC)",80 % of control
same,T/C,"dose: 175.0 mg/kg/injection, schedule: Q01DX011 (ip), vehicle: methylcellulose (MC)",60 % of control
O=c1[nH]cnc2nc(S(=O)(=O)F)[nH]c12,T/C,[1],117 % of control
same,T/C,[2],121 % of control
same,T/C,[3],115 % of control
Cc1ccc(N=S=O)cc1,T/C,"dose: 125.0 mg/kg/injection, schedule: Q01DX011 (ip), vehicle: saline",68 % of control
CC(=O)N(C(C)C)C(C)C,T/C,"dose: 5.0 mg/kg/injection, schedule: Q01DX011 (ip), vehicle: other",95 % of control
same,T/C,"dose: 10.0 mg/kg/injection, schedule: Q01DX011 (ip), vehicle: other",91 % of control
CCC(C)Cn1cnc2c(SCc3ccccc3F)nc(N)nc21 (stereo unspecified),T/C,"dose: 20.0 mg/kg/injection, schedule: Q01DX011 (ip), vehicle: methylcellulose (MC)",64 % of control
same,T/C,[4],76 % of control
same,T/C,"dose: 200.0 mg/kg/injection, schedule: Q01DX011 (ip), vehicle: methylcellulose (MC)",30 % of control
NS(=O)(=O)c1nc(Cl)c2[nH]cnc2n1,T/C,[5],116 % of control
same,T/C,[6],73 % of control
same,T/C,"dose: 225.0 mg/kg/injection, schedule: Q01DX011 (ip), vehicle: carboxymethylcellulose (CMC)",69 % of control
CC(=O)OCC1OC(n2cnc3c(=O)[nH]c(N)nc32)C(OC(C)=O)C1OC(C)=O (stereo unspecified),T/C,[7],59 % of control
same,T/C,[1],49 % of control
same,T/C,[2],57 % of control
same,T/C,[3],51 % of control
same,T/C,"dose: 400.0 mg/kg/injection, schedule: Q01DX011 (ip), vehicle: carboxymethylcellulose (CMC)",87 % of control
same,T/C,"dose: 600.0 mg/kg/injection, schedule: Q01DX011 (ip), vehicle: carboxymethylcellulose (CMC)",83 % of control
CC(C)CNS(=O)(=O)c1ncnc2nc[nH]c12,T/C,"dose: 6.0 mg/kg/injection, schedule: Q01DX011 (ip), vehicle: carboxymethylcellulose (CMC)",62 % of control
same,T/C,"dose: 6.0 mg/kg/injection, schedule: Q01DX011 (ip), vehicle: other",81 % of control
same,T/C,"dose: 12.0 mg/kg/injection, schedule: Q01DX011 (ip), vehicle: other",96 % of control
same,T/C,"dose: 12.5 mg/kg/injection, schedule: Q01DX011 (ip), vehicle: carboxymethylcellulose (CMC)",24 % of control
same,T/C,"dose: 19.0 mg/kg/injection, schedule: Q01DX011 (ip), vehicle: carboxymethylcellulose (CMC)",12 % of control
same,T/C,[5],8 % of control
same,T/C,"dose: 25.0 mg/kg/injection, schedule: Q01DX011 (ip), vehicle: other",34 % of control
same,T/C,"dose: 50.0 mg/kg/injection, schedule: Q01DX011 (ip), vehicle: other",6 % of control
same,T/C,[6],2 % of control
same,T/C,"dose: 100.0 mg/kg/injection, schedule: Q01DX011 (ip), vehicle: other",10 % of control
CCC1CN1P(=S)(N1CC1CC)N1CC1CC (stereo unspecified),T/C,"dose: 28.0 mg/kg/injection, schedule: Q01DX011 (ip), vehicle: saline",104 % of control
same,T/C,"dose: 56.0 mg/kg/injection, schedule: Q01DX011 (ip), vehicle: saline",28 % of control
same,T/C,"dose: 113.0 mg/kg/injection, schedule: Q01DX011 (ip), vehicle: saline",8 % of control
O=C1NC(=O)c2cc([N+](=O)[O-])cc3cccc1c23,T/C,"dose: 85.0 mg/kg/injection, schedule: Q01DX011 (ip), vehicle: methylcellulose (MC)",104 % of control
same,T/C,"dose: 680.0 mg/kg/injection, schedule: Q01DX011 (ip), vehicle: methylcellulose (MC)",89 % of control
CN1CC[C@]23c4c5ccc(O)c4O[C@H]2C(=O)CC[C@@]3(O)[C@H]1C5,T/C,"dose: 4.5 mg/kg/injection, schedule: Q01DX011 (ip), vehicle: methylcellulose (MC)",61 % of control and 73 % of control and 74 % of control
C[C@]12C=CC(=O)C=C1CC[C@H]1[C@@H]3C[C@@H](O)[C@](O)(C(=O)CO)[C@@]3(C)C[C@H](O)[C@@]12F,T/C,"dose: 1.5 mg/kg/injection, schedule: Q01DX011 (sc), vehicle: steriod suspending solution",98 % of control
same,T/C,"dose: 3.0 mg/kg/injection, schedule: Q01DX011 (sc), vehicle: steriod suspending solution",79 % of control
same,T/C,"dose: 3.12 mg/kg/injection, schedule: Q01DX011 (sc), vehicle: steriod suspending solution",77 % of control
same,T/C,"dose: 6.0 mg/kg/injection, schedule: Q01DX011 (sc), vehicle: steriod suspending solution",41 % of control
same,T/C,"dose: 12.5 mg/kg/injection, schedule: Q01DX011 (sc), vehicle: steriod suspending solution",32 % of control and 44 % of control and 53 % of control
Cc1ccc(CSc2ncnc3nc[nH]c23)cc1C,T/C,"dose: 18.75 mg/kg/injection, schedule: Q01DX011 (ip), vehicle: methylcellulose (MC)",48 % of control
same,T/C,"dose: 37.5 mg/kg/injection, schedule: Q01DX011 (ip), vehicle: methylcellulose (MC)",41 % of control
same,T/C,"dose: 75.0 mg/kg/injection, schedule: Q01DX011 (ip), vehicle: methylcellulose (MC)",32 % of control
same,T/C,[8],7 % of control
CSc1nc(Cl)c2cc[nH]c2n1,T/C,[7],89 % of control
same,T/C,[2],72 % of control
same,T/C,[3],79 % of control
CC(=O)OCC1OC(n2c(Br)nc3c(N)ncnc32)C(OC(C)=O)C1OC(C)=O (stereo unspecified),T/C,[7],88 % of control
same,T/C,[1],88 % of control
same,T/C,[2],104 % of control
same,T/C,[3],113 % of control
C[C@]12C=CC(=O)C=C1CC[C@@H]1[C@@H]2[C@@H](O)C[C@@]2(C)[C@H]1CC[C@]2(O)C(=O)CF,T/C,"dose: 8.0 mg/kg/injection, schedule: Q01DX011 (sc), vehicle: steriod suspending solution",64 % of control
same,T/C,"dose: 16.0 mg/kg/injection, schedule: Q01DX011 (sc), vehicle: steriod suspending solution",22 % of control
same,T/C,"dose: 132.0 mg/kg/injection, schedule: Q01DX011 (sc), vehicle: steriod suspending solution",30 % of control
same,T/C,"dose: 264.0 mg/kg/injection, schedule: Q01DX011 (sc), vehicle: steriod suspending solution",5 % of control
Cc1ccc(N=Nc2c(S(=O)(=O)O)cc3cc(NC(=O)Nc4ccc5c(O)c(N=Nc6ccc7cc(S(=O)(=O)O)ccc7c6)c(S(=O)(=O)O)cc5c4)ccc3c2O)cc1,T/C,"dose: 45.0 mg/kg/injection, schedule: Q01DX011 (ip), vehicle: methylcellulose (MC)",66 % of control
same,T/C,[4],42 % of control
same,T/C,[8],30 % of control
